Assay results taken from patent US11713309B2, “Solid forms of Cerdulatinib” (Alexion Pharmaceuticals, Inc., priority 2018, dated 2023).
Counter-ions that a name gives are not always drawn. Blank lines part the entries; values can stand above or below the compound they belong to.

Experiments:
Format in all cases: physicochemical
[1] = Gravimetric vapor sorption (GVS) hygroscopicity
Description: Sorption isotherms were obtained using a Hiden Isochema moisture sorption analyser (model IGAsorp), controlled by IGAsorp Systems Software v6.50.48. The sample was maintained at a constant temperature (25° C.) by the instrument controls. The humidity was controlled by mixing streams of dry and wet nitrogen, with a total flow of 250 mL·min^−1. The instrument was verified for relative humidity content by measuring three calibrated Rotronic salt solutions (10-50-88%). The weight change of the sample was monitored as a function of humidity by a microbalance (accuracy+/−0.005 mg). A defined amount of sample was placed in a tared mesh stainless steel basket under ambient conditions. A full experimental cycle consisted of two scans (sorption and desorption) at a constant temperature (25° C.) and 10% RH intervals over a 10-90% range (90 minutes for each humidity level).
The hygroscopicity of the esylate, mesylate, HCl, and sulfate salts/co-crystals of Compound I formed via the first scale up process was analyzed. All hygroscopicity experiments covered a wide range of humidity (0 to about 90% relative humidity) and were performed at about 25° C. to assess behavior.

[2] = XRPD form evaluation of materials recovered after solubility analysis; details: aqueous solubility analysis, second scale up material
Description: (§1) The solubility of the salts/co-crystals of Compound I prepared from the second scale up process was analyzed. The materials recovered after the solubility analysis were evaluated by XRPD to observe any form changes.

[3] = Thermodynamic aqueous solubility by HPLC; details: HPLC grade water, 25° C., 24 hours, second scale up material
Description: The suspension was equilibrated at 25° C. for 24 hours. The suspension was then passed through a filter into an HPLC vial. The filtrate was then diluted by an appropriate factor. Quantification was executed by HPLC with reference to a standard solution of approximately 1 mg·mL^−1 in acetonitrile:water (1:1). Different volumes of the standard, diluted and undiluted sample solutions were injected. […] HPLC method parameters are described in Table 1 and Table 2.
Analysis was performed on an Agilent 1100 series liquid chromatography, equipped with a UV detector (DAD or VWD) @ 254 nm and using Chemstation Rev.B.01.03 software for data processing.
as §1

[4] = Moisture uptake study of Compound I HCl amorphous at ambient conditions
[5] = Slurry competition of free base forms; details: from 5° C. to 50° C.
Description: Slurry competition was performed to evaluate the stability of Compound I free base Form II and Type E. A mixture of Compound I free base Form II and Type E were added into 1.0 mL of saturated EtOH or MEK solution (slurry of Form I at 5° C./RT/50° C. overnight). The suspensions were stirred at target temperatures.
Slurry competition was performed to evaluate the stability of free base Form I and Form II. A mixture of free base Form I and Form II were added into 1.0 mL of saturated EtOH or MEK solution (slurry of Form I at 5° C./RT/50° C. overnight). The suspensions were stirred at target temperatures for 3 days.

[6] = Slurry maturations in various solvents (form reproducibility/stability); details: cycling about 25 to about 50° C., about 4 days
Description: A series of slurry maturations in various solvents was performed to further analyze the form reproducibility/stability of the esylate, mesylate, HCl, and sulfate salts/co-crystals of Compound I. The solvents chosen were acetonitrile, EtOAc, ethanol, and IPA. The input materials were the salts/co-crystals of Compound I formed via the second scale up process. About 20 mg of each sample was charged to reflux tubes and heated with temperature cycling between about 25 and about 50° C. for about 4 days. The resulting materials were isolated by filtration and dried in vacuo at about 40° C. The results of the slurry maturations for the resulting HCl and mesylate salts/co-crystals are presented in subsections (a)-(d) below. The data for the resulting esylate and sulfate salts/co-crystals of Compound have been omitted due to notable form variation.

[7] = Thermodynamic pH-solubility profile; details: 7 days of shaking, about 37° C. water bath
Text: A thermodynamic pH-solubility profile of Compound I HCl Form I in various buffer or non-buffer solutions is further provided in FIG. 61. FIG. 61 additionally includes the thermodynamic pH-solubility profile of Compound I free base. It is of note that no data is shown in the profile of Compound I free base below a pH of about 2.0, as Compound I free base converted to Compound I HCl Form I below a pH of about 2.0. Similarly, no data is shown in the profile of Compound I HCl Form I above a pH of about 3.0, as Compound I HCl Form I converted to Compound I free base above a pH of about 3.0.

GVS water absorbed ([1]; 25° C., first scale up material, listed as Comp. I Sulfate Similar to Form II): About 0.5 mg
GVS total weight loss ([1]; dried to 0% RH): about 5.9%
Crystalline form by XRPD post GVS analysis ([1]; exposure to humidity 0 to about 90% RH, about 25° C., listed as crystalline Compound I sulfate sample): slightly increased the crystallinity
Hygroscopicity (qualitative) ([1]; second scale up material): facile pick-up of surface moisture
GVS gradual weight gain ([1]; up to about 80% RH): about 4.2%
Form change on solubility analysis (XRPD post vs pre) ([2]; listed as Compound I sulfate prepared from water): no form change
solubility ([3]; listed as Comp. I Sulfate Similar to Form II): 0.007 mg/mL
SMILES: CCS(=O)(=O)N1CCN(c2ccc(Nc3ncc(C(N)=O)c(NC4CC4)n3)cc2)CC1 [Compound I sulfate Form II, 4-(cyclopropylamino)-2-(4-(4-(ethylsulfonyl)piperazin-1-yl)phenylamino)pyrimidine-5-carboxamide]

GVS mass change ([1]; above about 40% RH, most markedly above about 80% RH): large increase in mass
Crystallinity on exposure to ambient conditions [4]: gradual increase in crystallinity
SMILES: CCS(=O)(=O)N1CCN(c2ccc(Nc3ncc(C(N)=O)c(NC4CC4)n3)cc2)CC1 [Compound I HCl amorphous, 4-(cyclopropylamino)-2-(4-(4-(ethylsulfonyl)piperazin-1-yl)phenylamino)pyrimidine-5-carboxamide]

Relative thermodynamic stability (slurry competition with Form I) [5]: more thermodynamically stable
SMILES: CCS(=O)(=O)N1CCN(c2ccc(Nc3ncc(C(N)=O)c(NC4CC4)n3)cc2)CC1 [Compound I Form II, 4-(cyclopropylamino)-2-(4-(4-(ethylsulfonyl)piperazin-1-yl)phenylamino)pyrimidine-5-carboxamide]
Relative thermodynamic stability (slurry competition with Type E) [5]: more thermodynamically stable than Type E

solubility ([3]; listed as Comp. I Sulfate Similar to Form I): 0.01 mg/mL
SMILES: CCS(=O)(=O)N1CCN(c2ccc(Nc3ncc(C(N)=O)c(NC4CC4)n3)cc2)CC1 [Compound I sulfate Form I, 4-(cyclopropylamino)-2-(4-(4-(ethylsulfonyl)piperazin-1-yl)phenylamino)pyrimidine-5-carboxamide]
Form change on solubility analysis (XRPD post vs pre) ([2]; listed as Compound I sulfate prepared from IPA): form change to Compound I sulfate Form II

Form after slurry maturation (XRPD) ([6]; IMA): conversion to Compound I Form I
Form change on solubility analysis (XRPD post vs pre) [2]: form change to Compound I HCl Form I
solubility ([3]; listed as Comp. I HCl (formed using dry HCl) Form II): 0.12 mg/mL
SMILES: CCS(=O)(=O)N1CCN(c2ccc(Nc3ncc(C(N)=O)c(NC4CC4)n3)cc2)CC1 [Compound I HCl Form II, 4-(cyclopropylamino)-2-(4-(4-(ethylsulfonyl)piperazin-1-yl)phenylamino)pyrimidine-5-carboxamide]
Form after slurry maturation (XRPD) ([6]; IPA): conversion to Compound I Form I, yet retains some mixed features
Form after slurry maturation (XRPD) ([6]; acetonitrile and EtOAc): mixture of Compound I Form I, Compound I Form II, and possibly other forms

pH range in which Compound I free base converted to Compound I HCl Form I [7]: < 2.0
SMILES: CCS(=O)(=O)N1CCN(c2ccc(Nc3ncc(C(N)=O)c(NC4CC4)n3)cc2)CC1 [Compound I, 4-(cyclopropylamino)-2-((4-(4-(ethylsulfonyl)piperazin-1-yl)phenyl)amino)pyrimidine-5-carboxamide]

solubility ([3]; listed as Comp. I Mesylate Similar to Form III): 2.32 mg/mL
SMILES: CCS(=O)(=O)N1CCN(c2ccc(Nc3ncc(C(N)=O)c(NC4CC4)n3)cc2)CC1 [Compound I mesylate Form III, 4-(cyclopropylamino)-2-(4-(4-(ethylsulfonyl)piperazin-1-yl)phenylamino)pyrimidine-5-carboxamide]
Form after slurry maturation (XRPD) ([6]; acetonitrile, EtOAc, ethanol, IPA, listed as Compound I mesylate (mono-mesylate) Form III): mixture of forms comprising Compound I mesylate Form III and other forms
Form change on solubility analysis (XRPD post vs pre) [2]: same form, which is different than the forms of either input material
